Paper PMC4560162, “Discovery of small molecule inhibitors of xyloglucan endotransglucosylase (XET) activity by high-throughput screening” (Phytochemistry, 2015)
Entries after “also recorded” stand apart in the source; their conditions may differ. Read-outs that look alike come from different tables or passages of the source.

What was measured:
[1] = tested on: Petroselinum xyloglucan endotransglucosylase (XET) activity; assay: Fluorescent dot-blot XET screen (cellulose-bound xyloglucan + XGO–SR on paper, in the dark); type: biochemical, parsley; conditions: for coagulation ('type c' effect) in dot-blot: EDI collection, 0.4 mg/ml in enzyme mixture
Protocol: For inhibitor screening, 53 new 96-well plates were set up with 50 μl of parsley enzyme extract per well, and 1 μl of DMSO-solubilised xenobiotic was added to each well, giving concentrations of 0.4 mg/ml (EDI collection, with exceptions noted in Table S2) or 50 μM (LATCA collection) and 2% v/v DMSO.
XET test-paper was prepared as before ([Fry, 1997]) and 112 × 75-mm sheets were attached to cellulose acetate overhead-projector sheets with ‘Spraymount’ adhesive. Each sheet was placed on a pre-cooled glass plate in a cold room at 4 °C.
For inhibitor screening (Fig. 2), 4 μl of a parsley enzyme/xenobiotic mixture was applied to each position on a sheet. Incubation at 20 °C for 2 h, washing, drying and photography were conducted essentially as above.

[2] = tested on: parsley XET activity; assay: Radiochemical XET assay (soluble xyloglucan + [3H]XXXGol); type: biochemical; conditions: for effect on XET activity in radiochemical assays (as summarised in the discussion): free solution; for effect on XET activity, radiochemical re-screen of 206 compounds (mostly LATCA): LATCA approx. 25 μM, EDI approx. 200 μg/ml, listed in order of decreasing effectiveness; for inhibition of XET activity: additional LATCA compounds re-tested radiochemically at 200 μM; for effect on XET activity, first radiochemical re-screen of EDI hits: most xenobiotics at 200 μg/ml (≈200–800 μM)
Protocol: The parsley enzyme concentration was held constant, and the xenobiotics were tested at 200, 160, 120, 80, 40, 20, 10 and 0 μg/ml (concentrations in the final reaction mixture). Other details were as above.
The riboflavin-free controls received the same DMSO concentration.

[3] = EDI 0.4 mg/ml, LATCA 50 μM, 2 h, dark, cellulose-bound xyloglucan
[4] = soluble xyloglucan, laboratory light

OCc1c[nH]c2ccccc12 [indole 3-carbinol]
effect on XET activity in dot-blot (inhibition / promotion) [1, 3]: stimulatory

COc1cccc2c1C(=O)c1c(O)c3c(c(O)c1C2=O)C[C@@](O)(C(C)=O)C[C@@H]3O[C@H]1C[C@H](N)[C@H](O)[C@H](C)O1 [daunorubicin]
effect on XET activity in radiochemical assays (as summarised in the discussion) [2, 4]: moderately inhibitory; also recorded: inhibited | effect on XET activity in dot-blot (inhibition / promotion) [1, 3]: apparent promoters; also recorded: promoted

Cc1cc(C2(c3cc(C)c(O)c(Br)c3)OS(=O)(=O)c3ccccc32)cc(Br)c1O [bromocresol purple]
effect on XET activity, radiochemical re-screen of 206 compounds (mostly LATCA) [2]: inhibition

O=c1cc(-c2ccc(O)cc2)oc2cc(O)cc(O)c12 [apigenin]
effect on XET activity in radiochemical assays (as summarised in the discussion) [2, 4]: little effect | effect on XET activity in dot-blot (inhibition / promotion) [1, 3]: promoted | coagulation ('type c' effect) in dot-blot [1]: coagulation

Cc1cc2nc3c(=O)[nH]c(=O)nc-3n(C[C@H](O)[C@H](O)[C@H](O)COP(=O)(O)OP(=O)(O)OC[C@H]3O[C@@H](n4cnc5c(N)ncnc54)[C@H](O)[C@@H]3O)c2cc1C [flavin adenine dinucleotide]
effect on XET activity, radiochemical re-screen of 206 compounds (mostly LATCA) [2]: inhibition | effect on XET activity in dot-blot (inhibition / promotion) [1, 3]: did not show inhibitory effects

O=C(O)[C@H](O)[C@@H](O)[C@H](O[C@@H]1O[C@H](CO)[C@H](O)[C@H](O)[C@H]1O)[C@H](O)CO [lactobionic acid]
effect on XET activity in radiochemical assays (as summarised in the discussion) [2, 4]: little effect | effect on XET activity in dot-blot (inhibition / promotion) [1, 3]: promotion; also recorded: promoted

O=c1cc(-c2ccc(O)c(O)c2)oc2cc(O)cc(O)c12 [luteolin]
effect on XET activity in radiochemical assays (as summarised in the discussion) [2, 4]: inhibited | effect on XET activity in dot-blot (inhibition / promotion) [1, 3]: promoted | coagulation ('type c' effect) in dot-blot [1]: coagulation

CC(=O)[O][Hg][c]1ccccc1 [phenylmercuric acetate]
effect on XET activity, radiochemical re-screen of 206 compounds (mostly LATCA) [2]: inhibition | effect on XET activity in dot-blot (inhibition / promotion) [1, 3]: inhibitors

CCOc1ccc(Nc2ccc(C(=C3C=CC(=[N+](CC)Cc4cccc(S(=O)(=O)[O-])c4)C=C3)c3ccc(N(CC)Cc4cccc(S(=O)(=O)O)c4)cc3)cc2)cc1 [brilliant blue R]
effect on XET activity, radiochemical re-screen of 206 compounds (mostly LATCA) [2]: inhibition

O=C1c2cccc3c(Br)ccc(c23)C(=O)N1O [6-bromo-2-hydroxy-1H-benzo[de]isoquinoline-1,3(2H)-dione]
effect on XET activity, radiochemical re-screen of 206 compounds (mostly LATCA) [2]: inhibition

Cc1cccc(OCC(=O)N/N=C/c2ccc(Br)o2)c1 [N′-(1E)-(5-bromofuran-2-yl)methylidene-2-(3-methylphenoxy)acetohydrazide]
inhibition of XET activity [2]: 24%

Cc1cc(C(=C2C=CC(=Nc3ccc(S(=O)(=O)O)cc3)C=C2)c2ccc(Nc3ccc(S(=O)(=O)O)cc3)cc2)cc(S(=O)(=O)O)c1N [aniline blue]
effect on XET activity in radiochemical assays (as summarised in the discussion) [2, 4]: inhibiting XET activity

O=C(O)[C@H](O)[C@@H](O)[C@H](O)CO [xylonic acid]
effect on XET activity in dot-blot (inhibition / promotion) [1, 3]: promotion

C[CH2][Hg][S]c1ccccc1C(=O)[O-].[Na+] [thiomersal]
effect on XET activity, radiochemical re-screen of 206 compounds (mostly LATCA) [2]: inhibition | effect on XET activity in dot-blot (inhibition / promotion) [1, 3]: did not show inhibitory effects

O=C(O)c1cc[c]([Hg][Cl])cc1 [4-chloromercuribenzoic acid]
effect on XET activity, radiochemical re-screen of 206 compounds (mostly LATCA) [2]: inhibition | XET activity inhibited ([2]; by ∼50 μM, little further inhibition up to ∼400 μM): 50–60% | effect on XET activity in dot-blot (inhibition / promotion) [1, 3]: strong inhibitor

O=C(O)[C@]1(O)C[C@@H](O)[C@@H](O)[C@H](O)C1 [quinic acid]
effect on XET activity in radiochemical assays (as summarised in the discussion) [2, 4]: little effect | effect on XET activity in dot-blot (inhibition / promotion) [1, 3]: promoted

O=C(CCc1ccc(O)cc1)c1c(O)cc(O)cc1O [phloretin]
effect on XET activity, first radiochemical re-screen of EDI hits [2]: inhibitory | effect on XET activity in radiochemical assays (as summarised in the discussion) [2, 4]: inhibited | effect on XET activity in dot-blot (inhibition / promotion) [1, 3]: promoted | coagulation ('type c' effect) in dot-blot [1]: coagulation

COc1ccc([C@@H]2CC(=O)c3c(O)cc(O)cc3O2)cc1O [hesperetin]
effect on XET activity in dot-blot (inhibition / promotion) [1, 3]: slightly enhanced

Cc1cc2nc3cc(C)c(N)cc3[n+](-c3ccccc3)c2cc1N [Safranine O]
effect on XET activity in dot-blot (inhibition / promotion) [1, 3]: stimulatory

O=C(CCc1ccc(O)cc1)c1c(O)cc(O)cc1O[C@@H]1O[C@H](CO)[C@@H](O)[C@H](O)[C@H]1O [phloridzin]
effect on XET activity in dot-blot (inhibition / promotion) [1, 3]: slightly enhanced

C[C@@H]1C/C=C/C=C/C=C/C=C/[C@H](O[C@@H]2O[C@H](C)[C@@H](O)[C@H](N)[C@@H]2O)C[C@@H]2O[C@](O)(C[C@@H](O)C[C@H]3O[C@@H]3/C=C/C(=O)O1)C[C@H](O)[C@H]2C(=O)O [natamycin]
effect on XET activity in dot-blot (inhibition / promotion) [1, 3]: stimulatory

CC(C)C(C)C(O)C(O)C(C)C1CCC2C3COC(=O)C4CC(O)C(O)CC4(C)C3CCC12C (stereo not shown) [epibrassinolide]
inhibition of XET activity [2]: 22%

O=[N+]([O-])[O-].[Ag+] [silver nitrate]
effect on XET activity in dot-blot (inhibition / promotion) [1]: inhibitors

C=C[C@@]1(C)CC(=O)[C@]2(O)[C@@]3(C)[C@@H](O)CCC(C)(C)[C@@H]3[C@H](O)[C@H](OC(C)=O)[C@@]2(C)O1 [forskolin]
effect on XET activity in dot-blot (inhibition / promotion) [1, 3]: stimulatory

Cc1ccc(SCc2ccc(C(=O)NCc3ccccn3)cc2)cc1 [4-{[(4-methylphenyl)thio]methyl}-N-(2-pyridinylmethyl)-benzamide]
effect on XET activity, radiochemical re-screen of 206 compounds (mostly LATCA) [2]: inhibition

O=c1cc(-c2ccccc2)oc2cc(O)c(O)c(O)c12 [baicalein]
effect on XET activity in radiochemical assays (as summarised in the discussion) [2, 4]: inhibited | effect on XET activity in dot-blot (inhibition / promotion) [1, 3]: promoted | coagulation ('type c' effect) in dot-blot [1]: coagulation

tannic acid
effect on XET activity, first radiochemical re-screen of EDI hits [2]: inhibitory

COc1cc(O)c2c(c1N)C(=O)c1ccccc1C2=O [1-amino-4-hydroxy-2-methoxyanthracene-9,10-dione]
inhibition of XET activity [2]: 29% | effect on XET activity in radiochemical assays (as summarised in the discussion) [2, 4]: moderately inhibitory | effect on XET activity in dot-blot (inhibition / promotion) [1, 3]: apparent promoters

O=C(O)c1ccccc1C(=O)O [phthalic acid]
effect on XET activity in dot-blot (inhibition / promotion) [1, 3]: promotion

O=C1OC(c2ccc(O)cc2)(c2ccc(O)cc2)c2ccccc21 [phenolphthalein]
effect on XET activity, first radiochemical re-screen of EDI hits [2]: inhibitory | coagulation ('type c' effect) in dot-blot [1]: coagulation

O=C(O[C@@H]1Cc2c(O)cc(O)cc2O[C@@H]1c1ccc(O)c(O)c1)c1cc(O)c(O)c(O)c1 [epicatechin gallate]
effect on XET activity, first radiochemical re-screen of EDI hits [2]: inhibitory | IC50 ([2]; read-out: IC50 (concentration required for 50% inhibition of XET activity), radiochemical assay, soluble xyloglucan, laboratory light, 2 h, 20 °C): ~400 µM
